# Experimental data as given in patent publication US20100068150A1, “Selective Caspase Inhibitors” (The Board of Trustees of the Leland Stanford Junior …, priority 2006, published 2010).
# “Also recorded” adds a separate entry of the source.
# Experiments:
# [1] = tested on: mature downstream caspases (17-22 kDa) in 293 extracts; assay: Intrinsic apoptosis assay in 293 extracts with AB06, KMB01 labeling of mature downstream caspases; assay type: biochemical; settings: AB06 added at the same time as cytochrome c/dATP
# Excerpt: FIGS. 6 A-E illustrate that full-length active caspase-7 has unique inhibitor specificity and is processed to mature forms by downstream executioner caspases. (A) The caspase-3 specific inhibitor causes accumulation of a catalytically active full-length form of caspase-7. Cytosolic extracts from 293 cells were activated with cytochrome c/dATP for the indicated times followed by labeling with KMB01 (left panel) and western blotting with a caspase-7 specific antibody (right panel) as in FIG. 5A. […] (B) The exact same experiment as (A) except extracts from MCF-7 cells were used in place of 293 extracts. (**) indicates forms of caspase-7 that are likely a result of the alternative transcription start site at methionine-45 (C) Quantification of the relative activity of FL-C7 in uninhibited 293 extracts (from FIG. 5A), AB06 treated 293 extracts (from (A)) and uninhibited MCF-7 extracts (from (B)) (D) Inhibitor specificity of full-length and processed forms of caspase-7. Extracts (293) were activated for 5 min with cytochrome c/dATP and then incubated with NP-capped AOMK inhibitors containing the indicated primary amino acid sequences for 5 minutes before KMB01 was added and allowed to label residual caspase active sites for 30 minutes. Samples were analyzed by SDS-PAGE followed by biotin blotting using strepavidin-HRP (left panel) or western blotting for caspase-7 (right panel). […]
# [2] = tested on: endogenous caspases in intact Jurkat cells; assay: Direct labeling of endogenous caspase activity in live Jurkat cells; assay type: cell-based; settings: anti-Fas or etoposide 15 h, probe 2 h; KMB01, bAB19 10 μM; bAB06, bAB13 1 μM
# [3] = tested on: caspase-3, caspase-6, caspase-7, caspase-8, caspase-9; settings: Kato et al., 2005; cited from earlier work
Molecule,KMB01 labeling of mature downstream caspases [1],labeling of endogenous caspases in intact cells [2],labeling of caspases by probe [3]
"Cc1cccc(C)c1C(=O)OCC(=O)[C@H](CC(=O)O)NC(=O)[C@@H](NC(=O)[C@H](Cc1ccncc1)NC(=O)[C@H](CC(=O)O)NC(=O)Cc1ccc(O)c([N+](=O)[O-])c1)C(C)C [AB06, Np-D-3-V-D-DMBA]",completely blocked,–,–
"Bio-EVD-AOMK [KMB01, reference compound]",–,robust labeling of downstream caspases-3 and 7; also recorded: did not show labeling of caspase-9,"robust labeling of caspase-9 as well as caspase-3, caspase-7 and caspase-8"
